Measurements reported in US6797721B2, “Phorboxazole derivatives for treating cancer” (Parker Hughes Institute, priority 1999, dated 2004).
Where two headings read alike, the source gives them in different places.

Columns and labels:
U373 glioblastoma cells [1] = assay: In vitro adhesion assay to ECM proteins, U373; type: cell-based, human; conditions: laminin-, fibronectin-, and collagen-coated plates, 0.1 μM to 1 μM for 24 hours
Experimental: (§1) Human brain tumor cell lines U-373 MG and breast cancer cell lines BT-20 and MDA-MB-231 were obtained from American Type Culture Collection (ATCC, Rockville, Md.) and maintained in liquid culture using DMEM supplemented with 10% fetal bovine serum and antibiotics. Fibroblast conditioned medium was used as a source of chemoattractant in vitro invasion assays. Conditioned medium was prepared as described in the literature (Albini et.al., 1987, Cancer Res., 47:3239-3245).
(§2) In vitro adhesion assays were performed to (a) study the baseline adhesive properties of various breast cancer and glioblastoma cell lines and (b) evaluate the effects of phorboxazole A derivatives on the adhesive properties of breast cancer and glioblastoma cells. The plates for the adhesion assays were precoated with the extracellular matrix proteins laminin, fibronectin, or type IV collagen (each at a final concentration of 1 μg/ml in PBS) overnight at 4° C. and dried. On the day of the experiment, the wells were rehydrated and blocked with 10% bovine serum albumin in PBS for 1 hour at room temperature and used for the adhesion assays, as described below.
(§3) The effects of synthetic phorboxazole A and specific derivatives on adhesion of breast cancer and glioblastoma cells was studied. Exponentially growing cells in DMEM were incubated with phorboxazole compounds or genistein as a control at concentrations ranging from 0.1 μM to 1 μM for 24 hours in a humidified 5% CO2 atmosphere. DMSO (0.1%) was included as a vehicle control. After treatment, cells were detached from the flasks with 0.05% trypsin (Life Technologies) resuspended in DMEM, incubated at 37° C. for 2 hours to allow them to recover from the trypsinization stress and examined for their ability to adhere to plates precoated with ECM proteins.
(§4) In adhesion assays, cells were centrifuged, washed twice with serum-free DMEM, counted and resuspended in serum-free DMEM to a final concentration of 2.5×10^5 cells/ml. […] The adherent fraction was quantitated using MTT (3-[4,5-dimethylthiazol-2-yl]-2,5-diphenyltetrazolium bromide) assays. […] The absorbance of each well was measured in a microplate reader (Labsystems) at 540 nm and a reference wavelength of 690 nm.
(§5) To translate the OD540 values into the number of cells in each well, the OD540 values were compared to those on standard OD540-versus-cell number curves generated for each cell line. The adherent fractions of cells treated with phorboxazole A derivatives were compared to those of DMSO-treated control cells and the percent inhibition of adhesion was determined using the formula: [formula]
(§6) Each treatment condition was evaluated in duplicate in 3 independent experiments. The IC50 values were calculated by non-linear regression analysis. […]

[2] = test system: BT-20 breast cancer cells; assay: In vitro adhesion assay to ECM proteins, BT-20; type: cell-based, human; conditions: laminin-, fibronectin-, and collagen-coated plates, 0.1 μM to 1 μM for 24 hours
Experimental: as §1, §2, §3, §4, §5, §6

[3] = test system: U373 human glioblastoma cells; assay: MTT cytotoxicity assay, U373; type: cell-based; conditions: U373 MG, read-out: IC50 [MTT]
Experimental: (§7) The cytotoxicity assay of synthetic Phorboxazole A and various derivative compounds against human tumor cells was performed using the MTT (3-[4,5-dimethylthiazol-2-yl]-2,5-diphenyl tetrazolium bromide) assay (Boehringer Mannheim Corp., Indianapolis, Ind.). Briefly, exponentially growing brain tumor cells were seeded into a 96-well plate at a density of 2.5×10^4 cells/well and incubated for 36 hours at 37° C. prior to drug exposure. On the day of treatment, culture medium was carefully aspirated from the wells and replaced with fresh medium containing the various phorboxazole A derivative compounds as well as the tyrosine kinase inhibitory isoflavone genistein (GEN) at concentrations ranging from 0.1 to 250 μM. Triplicate wells were used for each treatment.
(§8) Human glioblastoma cells U373 (brain cancer), human B-lineage acute lymphoblastic leukemia cells NALM-6, and human breast cancer cells BT-20 were obtained from American Type Culture Collection (Rockville, Md.) and maintained as a continuous cell line in Dulbecco's modified Eagles's medium supplemented with 10% fetal bovine serum and antibiotics.
(§9) The cells were incubated with the various compounds for 24-36 hours at 37° C. in a humidified 5% CO2 atmosphere. To each well, 10 μl of MTT (0.5 mg/ml final concentration) was added and the plates were incubated at 37° C. for 4 hours to allow MTT to form formazan crystals by reacting with metabolically active cells. The fonnazan crystals were solubilized overnight at 37° C. in a solution containing 10% SDS in 0.01 M HCl. The absorbance of each well was measured in a microplate reader (Labsystems) at 540 nm and a reference wavelength of 690 nm. To translate the OD540 values into the number of live cells in each well, the OD540 values were compared to those on standard OD540-versus-cell number curves generated for each cell line. The percent survival was calculated using the formula: [formula]
(§10) The IC50 values were calculated by non-linear regression analysis.

[4] = test system: NALM-6 human B-lineage acute lymphoblastic leukemia cells; assay: MTT cytotoxicity assay, NALM-6; type: cell-based
Experimental: as §7, §8, §9, §10

[5] = test system: MDA-MB-231 breast cancer cells; assay: In vitro adhesion assay to ECM proteins, MDA-MB-231; type: cell-based, human; conditions: laminin-, fibronectin-, and collagen-coated plates, 0.1 μM to 1 μM for 24 hours
Experimental: as §1, §2, §3, §4, §5, §6

U373 glioblastoma cells [6] = assay: Matrigel invasion assay (Boyden chambers); type: cell-based; conditions: Homo sapiens, U373 MG, read-out: IC50, inhibition of glioblastoma cell invasion through Matrigel
Experimental: The in vitro invasiveness of human brain tumor cell lines U-373 MG and breast cancer cell lines BT-20 and MDA-MB-231 cells was assayed using a previously published method which employs Matrigel™-coated Costar 24-well transwell cell culture chambers (“Boyden chambers”) with 8.0-μm-pore polycarbonate filter inserts (Albini,et.al, 1987, Cancer Res., 47:3239-3245). The chamber filters were coated with 50 μg/ml of Matrigel™ matrix, incubated overnight at room temperature under a laminar flow hood and stored at 4° C. Matrigel™ matrix is made up of several components of the extracellular matrix (ECM), including collagen, laminin and proteo-glycans. The cancer cells were incubated with 500, 250, 125, 62.5, and 31.2 nM concentrations of the synthetic Phorboxazole compounds for 72 hours.
On the day of the experiment, the coated inserts were rehydrated with 0.5 ml serum-free DMEM containing 0.1% bovine serum albumin for 1-2 hours. The treated cells were trypsinized, washed twice with serum-free DMEM containing BSA, counted and resuspended at 1×10^5 cells/ml. A 0.5 ml cell suspension containing 5×10^4 cells in a serum-free DMEM was added to the Matrigel™-coated and rehydrated filter inserts. A volume of 750 μl of NIH fibroblast conditioned medium was placed as a chemoattractant in 24-well plates and the inserts were placed in wells and incubated at 37° C. for 48 hours.
The invasive cells that migrated to the lower side of the filter were fixed, stained with Hema-3 solutions and counted under microscope. Five to 10 random fields per filter were counted to determine the mean (±SE) values for the invasive fraction. The invasive fractions of cells treated with phorboxazole A derivatives were compared to those of DMSO treated control cells and the percent inhibition of invasiveness was determined using the formula: [formula]
Each treatment condition was evaluated in duplicate in 3 independent experiments. IC50 values were calculated by non-linear regression analysis using Graphpad Prisin Software Version 2.0 (Graphpad Software Inc., San Diego, Calif.).

[7] = test system: BT-20 human breast cancer cells; assay: MTT cytotoxicity assay, BT-20; type: cell-based
Experimental: as §7, §8, §9, §10

Row | Structure (SMILES) | Inhibition of cell adhesion (U373 glioblastoma cells [1]) | Inhibition of cell adhesion [2] | IC50 [3] | IC50 ([4]; NALM-6, read-out: IC50 [MTT]) | Inhibition of cell adhesion [5] | IC50 (U373 glioblastoma cells [6]) | IC50 ([7]; BT-20, read-out: IC50 [MTT]) | IC50 ([3]; U373 (brain tumor, glioblastoma), 24-36 hours) | IC50 ([4]; NALM-6 (leukemia, ALL), 24-36 hours, read-out: IC50 [MTT]) | IC50 (U373 glioblastoma cells [6]; cells treated 72 hours, invasion 48 hours) | IC50 ([7]; BT-20 (breast cancer), 24-36 hours, read-out: IC50 [MTT])
1 | COC(=O)/C=C/C[C@H]1O[C@@H](/C(C)=C/c2coc(C[C@]3(O)C[C@H](OC)C[C@H]([C@H](O)/C=C(C)/C=C/[C@@H](C/C=C/Br)OC)O3)n2)[C@H](C)[C@@H](OC(C)=O)[C@H]1C [Compound 4, 24-O-Acetyl-18-methyl-phorboxylate (C18-C46 analog)] | active | active | > 2000 nM | > 2000 nM | active | 152 nM | > 2000 nM |  |  |  | 
2 | COC(=O)C[C@]1(O)C[C@H](OC)C[C@H]([C@H](O)/C=C(C)/C=C/[C@@H](C/C=C/Br)OC)O1 [Compound 5, 31-Methyl-phorboxylate (C31-C46 analog)] | active | active | > 2000 nM | > 2000 nM | active | 422 nM | > 2000 nM |  |  |  | 
3 | C=C1C[C@@H]2C[C@@H]3C[C@@H](O)C[C@@H](O3)c3coc(n3)/C=C/C[C@H]3O[C@@H](/C(C)=C/C(CO)NC(=O)C[C@]4(O)C[C@H](OC)C[C@H]([C@H](O)/C=C(C)/C=C/[C@@H](C/C=C/Br)OC)O4)[C@H](C)[C@@H](OC(=O)/C=C\C[C@@H](C1)O2)[C@H]3C (stereo partly drawn) [Compound 6, 29-Phorboxamide A (hydrated analog)] | active | active |  |  | active |  |  | > 2000 nM | > 2000 nM | < 125 nM | > 2000 nM
